Test results as given in ChEMBL document CHEMBL2062454, “SAR studies around a series of triazolopyridines as potent and selective PI3Kγ inhibitors” (Bioorg Med Chem Lett, 2012).
≈ marks a conversion by molar mass, not a printed value.

Assays:
[1] = target: Voltage-gated inwardly rectifying potassium channel KCNH2 (Homo sapiens, UniProt Q12809); assay: Inhibition of human ERG up to 100 uM by Q-patch assay
[2] = Thermodynamic solubility of the compound; assay type: physicochemical; settings: read-out: Therm_solubility
[3] = Oral bioavailability in rat at 5 mg/kg; assay type: ADME, organism-based; settings: in vivo
Cytochrome P450 2C9 = Cytochrome P450 2C9 (Homo sapiens, UniProt P11712); assay: Inhibition of CYP2C9 up to 25 uM; assay type: ADME
Sequence of Cytochrome P450 2C9 (P11712 whole entry): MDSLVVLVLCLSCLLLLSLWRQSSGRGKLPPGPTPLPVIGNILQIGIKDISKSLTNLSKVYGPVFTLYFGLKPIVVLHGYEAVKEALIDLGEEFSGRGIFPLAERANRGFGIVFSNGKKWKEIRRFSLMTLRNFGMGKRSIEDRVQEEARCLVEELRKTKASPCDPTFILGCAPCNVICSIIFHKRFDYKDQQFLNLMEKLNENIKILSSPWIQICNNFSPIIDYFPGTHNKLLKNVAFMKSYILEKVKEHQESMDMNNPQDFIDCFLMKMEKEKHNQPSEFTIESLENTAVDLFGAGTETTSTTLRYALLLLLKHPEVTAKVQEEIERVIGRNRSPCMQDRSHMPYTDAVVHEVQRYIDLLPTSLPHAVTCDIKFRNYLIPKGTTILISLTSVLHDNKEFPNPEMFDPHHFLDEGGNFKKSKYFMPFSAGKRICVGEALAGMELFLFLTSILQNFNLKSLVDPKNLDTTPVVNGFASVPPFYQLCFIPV

Cytochrome P450 2C19 = Cytochrome P450 2C19 (Homo sapiens, UniProt P33261); assay: Inhibition of CYP2C19 up to 25 uM; assay type: ADME
Sequence of Cytochrome P450 2C19 (P33261 whole entry): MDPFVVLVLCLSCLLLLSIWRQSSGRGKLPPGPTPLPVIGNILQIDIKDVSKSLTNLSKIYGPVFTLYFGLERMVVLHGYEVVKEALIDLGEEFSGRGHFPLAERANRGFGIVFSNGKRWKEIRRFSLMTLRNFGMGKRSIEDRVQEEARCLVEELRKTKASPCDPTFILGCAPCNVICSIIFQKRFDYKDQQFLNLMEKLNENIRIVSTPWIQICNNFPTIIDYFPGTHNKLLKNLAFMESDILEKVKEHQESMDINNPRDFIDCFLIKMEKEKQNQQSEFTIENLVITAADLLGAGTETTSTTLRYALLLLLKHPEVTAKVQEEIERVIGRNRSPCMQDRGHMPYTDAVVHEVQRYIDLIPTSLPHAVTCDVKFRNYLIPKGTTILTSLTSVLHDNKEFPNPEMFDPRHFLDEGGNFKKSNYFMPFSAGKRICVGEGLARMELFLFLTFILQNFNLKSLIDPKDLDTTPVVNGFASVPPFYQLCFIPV

Salmonella typhimurium [4] = assay: Mutagenic activity in Salmonella typhimurium TA1537 at 1667 ug/plate in absence of liver S9 fraction; assay type: toxicity, organism-based; settings: salmonella enterica subsp. enterica serovar typhimurium
Mus musculus = assay: Antiarthritic activity in DBA/B10 mouse collagen-induced arthritis model assessed as reduction of clinical score at 10 mg/kg, po administered twice per day for every 12 hrs; assay type: functional; parameters: scale not given: the % may be the effect or the level left
Salmonella typhimurium [5] = assay: Mutagenic activity in Salmonella typhimurium TA100 at 1667 ug/plate in presence of liver S9 fraction; assay type: toxicity, organism-based; settings: salmonella enterica subsp. enterica serovar typhimurium
[6] = target: Phosphatidylinositol 4,5-bisphosphate 3-kinase catalytic subunit gamma isoform (Homo sapiens, UniProt P48736); assay: Inhibition of PI3Kgamma assessed as inhibition of C5a-induced AKT phosphorylation at Ser473 by cell based assay
Sequence of Phosphatidylinositol 4,5-bisphosphate 3-kinase catalytic subunit gamma isoform (P48736 whole entry, canonical isoform): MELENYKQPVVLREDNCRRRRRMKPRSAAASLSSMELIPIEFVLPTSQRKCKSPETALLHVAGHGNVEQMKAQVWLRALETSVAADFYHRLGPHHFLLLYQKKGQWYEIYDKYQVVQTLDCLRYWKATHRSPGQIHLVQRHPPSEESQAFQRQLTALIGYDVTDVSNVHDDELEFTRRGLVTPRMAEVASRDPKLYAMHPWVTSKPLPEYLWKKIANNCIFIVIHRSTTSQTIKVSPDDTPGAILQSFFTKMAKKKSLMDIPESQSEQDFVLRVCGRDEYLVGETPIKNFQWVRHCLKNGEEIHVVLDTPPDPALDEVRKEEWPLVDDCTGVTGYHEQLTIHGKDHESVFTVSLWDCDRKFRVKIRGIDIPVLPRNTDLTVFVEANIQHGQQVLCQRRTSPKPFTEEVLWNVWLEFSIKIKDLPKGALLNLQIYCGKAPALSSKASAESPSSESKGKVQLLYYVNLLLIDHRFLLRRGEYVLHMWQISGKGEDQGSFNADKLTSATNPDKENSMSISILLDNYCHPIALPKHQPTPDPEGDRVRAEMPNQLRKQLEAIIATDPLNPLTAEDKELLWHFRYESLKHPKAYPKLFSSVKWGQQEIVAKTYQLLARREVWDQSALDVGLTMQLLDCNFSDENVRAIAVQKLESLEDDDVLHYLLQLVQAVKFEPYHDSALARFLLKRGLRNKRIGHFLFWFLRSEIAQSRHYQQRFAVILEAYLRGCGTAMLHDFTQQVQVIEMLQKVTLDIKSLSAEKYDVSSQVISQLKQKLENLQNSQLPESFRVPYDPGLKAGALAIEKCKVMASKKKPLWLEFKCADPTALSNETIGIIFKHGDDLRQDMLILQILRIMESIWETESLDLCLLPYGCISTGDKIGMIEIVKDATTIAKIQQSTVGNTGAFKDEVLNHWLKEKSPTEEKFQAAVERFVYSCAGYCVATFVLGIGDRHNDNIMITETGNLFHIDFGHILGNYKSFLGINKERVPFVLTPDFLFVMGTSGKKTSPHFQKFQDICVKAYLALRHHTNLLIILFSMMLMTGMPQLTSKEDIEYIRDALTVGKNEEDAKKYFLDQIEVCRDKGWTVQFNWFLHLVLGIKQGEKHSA

[7] = Clearance in rat at 1 mg/kg, iv and 5 mg/kg, po; assay type: ADME, organism-based; settings: in vivo
Salmonella typhimurium [8] = assay: Mutagenic activity in Salmonella typhimurium TA1537 at 1667 ug/plate in presence of liver S9 fraction; assay type: toxicity, organism-based; settings: salmonella enterica subsp. enterica serovar typhimurium
Cytochrome P450 1A = target: T1, Cytochrome P450 1A (Homo sapiens, UniProt P04798+P05177); assay: Inhibition of CYP1A up to 25 uM; assay type: ADME
T1 sequence (P04798 whole entry): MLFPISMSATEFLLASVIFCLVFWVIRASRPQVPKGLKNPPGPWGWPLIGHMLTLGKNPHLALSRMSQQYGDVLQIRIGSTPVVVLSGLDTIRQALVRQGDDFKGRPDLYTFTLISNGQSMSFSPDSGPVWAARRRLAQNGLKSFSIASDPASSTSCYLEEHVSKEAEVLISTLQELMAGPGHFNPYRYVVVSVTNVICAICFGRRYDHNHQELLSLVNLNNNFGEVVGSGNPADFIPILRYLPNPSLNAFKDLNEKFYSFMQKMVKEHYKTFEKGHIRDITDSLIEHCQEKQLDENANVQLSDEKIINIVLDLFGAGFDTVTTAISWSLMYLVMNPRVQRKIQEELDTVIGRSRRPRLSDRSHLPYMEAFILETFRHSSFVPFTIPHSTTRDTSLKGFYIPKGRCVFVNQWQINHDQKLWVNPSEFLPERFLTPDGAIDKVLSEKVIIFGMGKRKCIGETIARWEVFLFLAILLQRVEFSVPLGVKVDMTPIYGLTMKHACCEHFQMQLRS
T1 sequence (P05177 whole entry): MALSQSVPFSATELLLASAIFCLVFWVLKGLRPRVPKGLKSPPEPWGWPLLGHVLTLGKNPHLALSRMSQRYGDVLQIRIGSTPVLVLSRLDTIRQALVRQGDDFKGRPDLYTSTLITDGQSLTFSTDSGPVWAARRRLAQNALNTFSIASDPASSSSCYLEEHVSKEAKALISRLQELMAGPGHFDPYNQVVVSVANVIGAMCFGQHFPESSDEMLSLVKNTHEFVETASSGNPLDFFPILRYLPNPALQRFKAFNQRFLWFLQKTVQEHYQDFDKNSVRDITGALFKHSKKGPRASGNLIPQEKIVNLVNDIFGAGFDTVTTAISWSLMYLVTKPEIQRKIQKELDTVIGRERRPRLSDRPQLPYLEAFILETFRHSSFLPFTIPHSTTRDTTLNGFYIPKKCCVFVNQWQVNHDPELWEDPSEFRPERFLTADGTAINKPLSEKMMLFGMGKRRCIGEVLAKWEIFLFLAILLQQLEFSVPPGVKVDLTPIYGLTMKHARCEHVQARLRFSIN

[9] = Half life in human microsomes; assay type: ADME, Microsome
Salmonella typhimurium [10] = assay: Mutagenic activity in Salmonella typhimurium TA98 at 1667 ug/plate in presence of liver S9 fraction; assay type: toxicity, organism-based; settings: salmonella enterica subsp. enterica serovar typhimurium
Salmonella typhimurium [11] = assay: Mutagenic activity in Salmonella typhimurium TA98 at 1667 ug/plate in absence of liver S9 fraction; assay type: toxicity, organism-based; settings: salmonella enterica subsp. enterica serovar typhimurium
[12] = Half life in rat microsomes; assay type: ADME, Microsome
[13] = Half life in mouse microsomes; assay type: ADME, Microsome
Caco-2 = assay: Permeability of the compound in human Caco2 cells; assay type: ADME, cell-based
Cytochrome P450 3A4 = Cytochrome P450 3A4 (Homo sapiens, UniProt P08684); assay: Inhibition of CYP3A4 up to 25 uM; assay type: ADME
Sequence of Cytochrome P450 3A4 (P08684 whole entry): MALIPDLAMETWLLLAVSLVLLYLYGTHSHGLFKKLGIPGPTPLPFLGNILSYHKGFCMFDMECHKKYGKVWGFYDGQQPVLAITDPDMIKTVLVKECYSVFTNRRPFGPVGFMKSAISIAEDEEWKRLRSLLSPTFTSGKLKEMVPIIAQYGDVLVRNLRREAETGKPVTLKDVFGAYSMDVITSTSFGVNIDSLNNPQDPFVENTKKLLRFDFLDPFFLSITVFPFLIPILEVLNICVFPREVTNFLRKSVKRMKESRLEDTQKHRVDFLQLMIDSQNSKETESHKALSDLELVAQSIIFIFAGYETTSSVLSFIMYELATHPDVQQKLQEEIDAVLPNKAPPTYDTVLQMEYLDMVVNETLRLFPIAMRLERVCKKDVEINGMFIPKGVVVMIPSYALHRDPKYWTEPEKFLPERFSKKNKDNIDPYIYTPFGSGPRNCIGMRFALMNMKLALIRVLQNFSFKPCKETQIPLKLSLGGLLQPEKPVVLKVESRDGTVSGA

Salmonella typhimurium [14] = assay: Mutagenic activity in Salmonella typhimurium TA100 at 1667 ug/plate in absence of liver S9 fraction; assay type: toxicity, organism-based; settings: salmonella enterica subsp. enterica serovar typhimurium
Cytochrome P450 2D6 = Cytochrome P450 2D6 (Homo sapiens, UniProt P10635); assay: Inhibition of CYP2D6 up to 25 uM; assay type: ADME
Sequence of Cytochrome P450 2D6 (P10635 whole entry, canonical isoform): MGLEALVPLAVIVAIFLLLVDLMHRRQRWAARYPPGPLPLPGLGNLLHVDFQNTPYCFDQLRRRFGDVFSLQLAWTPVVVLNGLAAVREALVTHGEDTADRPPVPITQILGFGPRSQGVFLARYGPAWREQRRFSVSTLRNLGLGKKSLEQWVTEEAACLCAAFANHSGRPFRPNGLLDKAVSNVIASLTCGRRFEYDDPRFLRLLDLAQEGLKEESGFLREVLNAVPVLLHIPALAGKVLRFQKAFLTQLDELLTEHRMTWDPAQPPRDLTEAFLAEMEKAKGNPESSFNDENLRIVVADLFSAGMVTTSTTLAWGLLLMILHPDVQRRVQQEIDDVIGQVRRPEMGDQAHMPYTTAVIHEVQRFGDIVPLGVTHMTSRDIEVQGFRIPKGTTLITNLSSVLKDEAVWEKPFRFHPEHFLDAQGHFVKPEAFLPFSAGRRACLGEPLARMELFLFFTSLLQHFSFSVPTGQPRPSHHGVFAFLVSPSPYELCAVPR

[15] = target: Phosphatidylinositol 4,5-bisphosphate 3-kinase catalytic subunit beta isoform (Homo sapiens, UniProt P42338); assay: Inhibition of PI3Kbeta by high throughput chemoproteomics binding assay
[16] = Oral bioavailability in rat at 10 mg/kg; assay type: ADME, organism-based; settings: in vivo
[17] = Clearance in rat at 0.2 mg/kg, iv and 10 mg/kg, po; assay type: ADME, organism-based; settings: in vivo
[18] = target: Phosphatidylinositol 4,5-bisphosphate 3-kinase catalytic subunit alpha isoform (Homo sapiens, UniProt P42336); assay: Inhibition of PI3Kalpha by high throughput chemoproteomics binding assay
Homo sapiens [19] = organism: Homo sapiens; assay: Selectivity ratio of IC50 for PI3Kbeta to IC50 for PI3Kgamma
Homo sapiens [20] = organism: Homo sapiens; assay: Selectivity ratio of IC50 for PI3Kdelta to IC50 for PI3Kgamma

Sequence of Voltage-gated inwardly rectifying potassium channel KCNH2 (Q12809 whole entry): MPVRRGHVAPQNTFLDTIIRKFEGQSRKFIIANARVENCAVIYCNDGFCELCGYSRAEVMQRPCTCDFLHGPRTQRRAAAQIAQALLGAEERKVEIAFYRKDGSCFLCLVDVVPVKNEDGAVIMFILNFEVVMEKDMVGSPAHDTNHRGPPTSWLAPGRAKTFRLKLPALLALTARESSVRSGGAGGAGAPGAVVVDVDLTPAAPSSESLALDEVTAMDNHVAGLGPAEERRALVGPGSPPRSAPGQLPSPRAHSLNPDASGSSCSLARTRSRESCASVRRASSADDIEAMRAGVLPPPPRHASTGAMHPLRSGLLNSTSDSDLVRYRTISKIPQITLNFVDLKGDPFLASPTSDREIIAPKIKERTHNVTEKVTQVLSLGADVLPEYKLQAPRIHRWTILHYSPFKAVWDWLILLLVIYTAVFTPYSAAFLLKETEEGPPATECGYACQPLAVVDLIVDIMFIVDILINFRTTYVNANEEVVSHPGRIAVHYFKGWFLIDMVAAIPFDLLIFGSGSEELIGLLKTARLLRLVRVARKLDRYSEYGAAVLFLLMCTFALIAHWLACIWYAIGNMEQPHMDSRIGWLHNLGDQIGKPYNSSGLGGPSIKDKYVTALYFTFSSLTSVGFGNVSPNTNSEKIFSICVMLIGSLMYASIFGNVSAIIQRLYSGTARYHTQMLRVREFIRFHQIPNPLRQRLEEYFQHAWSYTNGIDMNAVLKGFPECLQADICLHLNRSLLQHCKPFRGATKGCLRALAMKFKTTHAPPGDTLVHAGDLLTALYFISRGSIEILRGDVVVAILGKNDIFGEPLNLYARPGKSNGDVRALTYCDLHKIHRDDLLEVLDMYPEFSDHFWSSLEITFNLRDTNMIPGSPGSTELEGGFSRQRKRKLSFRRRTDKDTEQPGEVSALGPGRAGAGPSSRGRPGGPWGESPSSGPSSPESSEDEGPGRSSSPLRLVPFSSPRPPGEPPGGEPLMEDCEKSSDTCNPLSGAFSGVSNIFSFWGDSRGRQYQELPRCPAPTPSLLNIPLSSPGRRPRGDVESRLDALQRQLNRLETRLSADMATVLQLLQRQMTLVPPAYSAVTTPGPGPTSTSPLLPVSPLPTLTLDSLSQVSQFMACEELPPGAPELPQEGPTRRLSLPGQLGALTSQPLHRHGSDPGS

Row | SMILES | inhibition (INH) [1] | solubility thermodynamic [2] [µg/mL] | inhibition (INH) (Cytochrome P450 2C9) | inhibition (INH) (Cytochrome P450 2C19) | Activity (Salmonella typhimurium [4]) | Activity (Mus musculus) [%] | Activity (Salmonella typhimurium [5]) | Activity (Salmonella typhimurium [8]) | inhibition (INH) (Cytochrome P450 1A) | Activity (Salmonella typhimurium [10]) | Activity (Salmonella typhimurium [11]) | permeability (Caco-2) | inhibition (INH) (Cytochrome P450 3A4) | Activity (Salmonella typhimurium [14]) | inhibition (INH) (Cytochrome P450 2D6) | other results
1 | CC(C)(C)NS(=O)(=O)c1cncc(-c2ccc3nc(N)nn3c2)c1 | Not Active | 9 (≈ 26 µM) | Not Active | Not Active | Non-toxic | 53 | Non-toxic | Non-toxic | Not Active | Non-toxic | Non-toxic | permeable | Not Active | Non-toxic | Not Active | bioavailability [3]: 88%; IC50 [6]: 2000 nM; clearance [7]: 11.5 mL/min/kg; half-life [9]: > 45 min; half-life [12]: > 45 min; half-life [13]: > 45 min
2 | CC(C)(C)NS(=O)(=O)c1cncc(-c2cc(F)c3nc(N)nn3c2)c1 | Not Active | < 5 | Not Active | Not Active | Non-toxic | 38 | Non-toxic | Non-toxic | Not Active | Non-toxic | Non-toxic | permeable | Not Active | Non-toxic | Not Active | IC50 [15]: 1260 nM; bioavailability [16]: 37%; clearance [17]: 14 mL/min/kg; IC50 [18]: > 10000 nM; Ratio IC50 (Homo sapiens [19]): 100; Ratio IC50 (Homo sapiens [20]): 100
